Measured values taken from ChEMBL document CHEMBL1138164, “Synthesis and structure-activity relationships of novel pyrrolocarbazole lactam analogs as potent and cell-permeable inhibitors of poly(ADP-ribose)polymerase-1 (PARP-1)” (Bioorg Med Chem Lett, 2006).
≈ marks a conversion by molar mass, not a printed value.

What was measured:
PC-12 [1] = assay: Potency in PC12 cells assessed by recovery of NAD+ at 1 uM; format: functional, Rattus norvegicus
PC-12 [2] = assay: Potency in PC12 cells assessed by recovery of NAD+ at 10 uM; format: functional, Rattus norvegicus
PC-12 [3] = assay: Efficacy in PC12 cells assessed by recovery of NAD+ at 30 uM; format: functional, Rattus norvegicus
[4] = Aqueous solubility of compound; format: physicochemical; conditions: water (aqueous)

SMILES	Activity (PC-12 [1])	Activity (PC-12 [2])	Efficacy (PC-12 [3])	solubility [4]
N#Cc1ccc2[nH]c3c4c(c5c(c3c2c1)CNC5=O)CCC4	26%	74%	122%	–
O=C1NCc2c1c1c(c3[nH]c4ccc(Br)cc4c23)CCC1	28%	47%	–	–
O=C(NCCn1ccnn1)c1ccc2[nH]c3c4c(c5c(c3c2c1)CNC5=O)CCC4	12%	–	28%	–
O=C1NCc2c1c1c(c3[nH]c4ccc(C(=O)N5CCOCC5)cc4c23)CCC1	18%	–	74%	–
Cc1ccc2[nH]c3c4c(c5c(c3c2c1)CNC5=O)CCC4	17%	–	50%	–
CN(C)CCNC(=O)c1ccc2[nH]c3c4c(c5c(c3c2c1)CNC5=O)CCC4	6%	–	36%	–
NCCCCC(N)C(=O)NCc1ccc2[nH]c3c4c(c5c(c3c2c1)CNC5=O)CCC4 (stereo not given)	2%	–	48%	–
CN(Cc1ccncc1)C(=O)c1ccc2[nH]c3c4c(c5c(c3c2c1)CNC5=O)CCC4	23%	–	101%	–
O=C(NCCN1CCOCC1)c1ccc2[nH]c3c4c(c5c(c3c2c1)CNC5=O)CCC4	7%	–	27%	–
O=C(O)c1ccc2[nH]c3c4c(c5c(c3c2c1)CNC5=O)CCC4	24%	–	65%	–
NCc1ccc2[nH]c3c4c(c5c(c3c2c1)CNC5=O)CCC4	39%	–	102%	100 µg/mL (≈ 343 µM)
CN(CCc1c[nH]cn1)C(=O)c1ccc2[nH]c3c4c(c5c(c3c2c1)CNC5=O)CCC4	5%	–	39%	–
CN(Cc1ccccn1)C(=O)c1ccc2[nH]c3c4c(c5c(c3c2c1)CNC5=O)CCC4	11%	–	44%	–
O=C1NCc2c1c1c(c3[nH]c4ccccc4c23)CCC1	48%	68%	–	< 1 µg/mL
COC(=O)c1ccc2[nH]c3c4c(c5c(c3c2c1)CNC5=O)CCC4	38%	–	134%	–
O=C1NCc2c1c1c(c3[nH]c4ccc(Cl)cc4c23)CCC1	26%	–	133%	–
